pIC50: −log10 of the molar value.
These compounds were tested against T1, Peroxisome proliferator-activated receptor gamma (Homo sapiens, UniProt P37231) (assay: Binding affinity to GST-tagged human PPAR-gamma receptor by FRET assay). Settings: not given; call rule not given here.
T1 sequence (P37231 whole entry): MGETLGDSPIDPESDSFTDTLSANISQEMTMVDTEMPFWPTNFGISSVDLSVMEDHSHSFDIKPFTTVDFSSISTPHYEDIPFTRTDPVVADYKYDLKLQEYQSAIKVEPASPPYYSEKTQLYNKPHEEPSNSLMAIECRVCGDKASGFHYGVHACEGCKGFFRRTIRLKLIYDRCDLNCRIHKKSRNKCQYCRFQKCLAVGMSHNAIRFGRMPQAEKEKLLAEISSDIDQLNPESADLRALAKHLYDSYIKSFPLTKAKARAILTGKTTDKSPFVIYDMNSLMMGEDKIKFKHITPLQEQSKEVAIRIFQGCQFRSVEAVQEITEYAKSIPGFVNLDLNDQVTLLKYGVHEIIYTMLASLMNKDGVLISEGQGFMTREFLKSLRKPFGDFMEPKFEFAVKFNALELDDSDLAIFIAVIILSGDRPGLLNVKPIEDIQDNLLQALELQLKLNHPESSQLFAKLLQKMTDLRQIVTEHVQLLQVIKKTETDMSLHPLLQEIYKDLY

SMILES | IC50
O=C1NC(=O)C(=Cc2ccc(N(CCOCc3ccccc3)CCOC(c3ccccc3)(c3ccccc3)c3ccccc3)cc2)C(=O)N1 | Not Active
O=C1NC(=O)C(=Cc2ccc(N(CCOc3ccccn3)CCOc3ccccn3)cc2)C(=O)N1 | Not Active
CC(=O)OCCN(CCOC(C)=O)c1ccc(C=C2C(=O)NC(=O)NC2=O)cc1 | Not Active
COc1ccc(COCCN(CCOCc2ccc(Br)cc2)c2ccc(C=C3C(=O)NC(=O)NC3=O)cc2)cc1 | Not Active
COc1ccc(COCCN(CCOC(C)=O)c2ccc(C=C3C(=O)NC(=O)NC3=O)cc2)cc1 | Not Active
O=C1NC(=O)C(=Cc2ccc(N(CCOCc3ccc(F)cc3)CCOCc3ccc(F)cc3)cc2)C(=O)N1 | Not Active

Same assay, conditions: read-out: IC50

SMILES | pIC50
O=C1NC(=O)C(=Cc2ccc(N(CCO)CCOC(c3ccccc3)(c3ccccc3)c3ccccc3)cc2)C(=O)N1 | 4.65
COc1ccc(COCCN(CCOCc2ccccc2)c2ccc(C=C3C(=O)NC(=O)NC3=O)cc2)cc1 | 3.72
N#Cc1ccc(OCCN(CCOc2ccc(C#N)cc2)c2ccc(C=C3C(=O)NC(=O)NC3=O)cc2)cc1 | 5.19
O=C1NC(=O)C(=Cc2ccc(N(CCOc3ccc([N+](=O)[O-])cc3)CCOc3ccc([N+](=O)[O-])cc3)cc2)C(=O)N1 | 5.00
COc1ccc(COCCN(CCOCc2ccc(OC)cc2)c2ccc(C=C3C(=O)NC(=O)NC3=O)cc2)cc1 | 4.23
COc1ccc(COCCN(CCOc2ccccn2)c2ccc(C=C3C(=O)NC(=O)NC3=O)cc2)cc1 | 4.08
CC(=O)OCCN(CCOCc1ccccc1)c1ccc(C=C2C(=O)NC(=O)NC2=O)cc1 | < 3.70
O=C1NC(=O)C(=Cc2ccc(N(CCOCc3ccccc3)CCOCc3ccccc3)cc2)C(=O)N1 | 4.11
O=C1NC(=O)C(=Cc2ccc(OCc3ccccc3)cc2)C(=O)N1 | 7.00
